# Source: US10597388B2, “Pyridazinone herbicides” (FMC CORPORATION, priority 2014, dated 2020)
# Read-outs that look alike come from different tables or passages of the source.
# Key:
# Type in all cases: in vivo
# [1] = tested on: momingglory (Ipomoea spp.); assay: Test A greenhouse herbicide test, pre- and postemergence; settings: 240 h; for pest or weed control at 1000 g/ha: 1000 g ai/ha; for pest or weed control at 1000 g/ha / pest or weed control at 500 g/ha: 0 to 100 scale; for pest or weed control at 125 g/ha: 125 g ai/ha; for pest or weed control at 500 g/ha: 500 g ai/ha
# Summary of the method: (§1)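 Seeds sown in loam–sand blend got a preemergence directed soil spray of compound in non-phytotoxic solvent with surfactant. Postemergence treatment was given at 2–10 cm, one- to two-leaf stage. After ~10 d in greenhouse, injury was rated visually vs untreated controls, 0 (no effect) to 100 (complete control).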
# [2] = tested on: crabgrass, large (large crabgrass, Digitaria sanguinalis); assay: as above; settings: 240 h; for pest or weed control at 1000 g/ha: 1000 g ai/ha; for pest or weed control at 1000 g/ha / pest or weed control at 500 g/ha: 0 to 100 scale; for pest or weed control at 125 g/ha: 125 g ai/ha; for pest or weed control at 500 g/ha: 500 g ai/ha
# Summary of the method: as §1
# [3] = tested on: ECHCG, barnyardgrass (Echinochloa crus-galli); assay: Test F mixtures with commercial herbicides, Post- or Pre-emergence
# Summary of the method: (§2)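 Seeds were sown in Sandy Loam soil and sprayed pre- or post-emergence with mixtures in a non-phytotoxic solvent, rates as g a.i./ha. Greenhouse, ~16 h photoperiod, 24-30/19-21° C. day/night. Visual 0–100 rating vs controls at 20 d; expected effect from Colby's Equation.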
# [4] = tested on: KCHSC, kochia (Kochia scoparia); assay: as above
# Summary of the method: as §2
# [5] = tested on: AMBEL, common ragweed (Ambrosia elatior); assay: as above
# Summary of the method: as §2
# [6] = tested on: GALAP, galium (Galium aparine); assay: as above; settings: Post-emergence, scale 0-100
# Summary of the method: as §2
# [7] = tested on: ALOMY, blackgrass (Alopecurus myosuroides); assay: as above; settings: Post-emergence, scale 0-100
# Summary of the method: as §2
# [8] = tested on: LOLMU, Italian Ryegrass (Lolium multiflorum); assay: as above
# Summary of the method: as §2
# [9] = tested on: AMARE, redroot pigweed (Amaranthus retroflexus); assay: as above
# Summary of the method: as §2
# [10] = tested on: SETVI, giant foxtail (Setaria faberii); assay: as above
# Summary of the method: as §2
# [11] = post-emergence, Postemergence, 0 is no effect, 100 is complete control, read-out: Morningglory plant response rating
# [12] = pre-emergence, Preemergence, 0 no effect, 100 complete control, read-out: Plant response rating, Morningglory
# [13] = post-emergence, Postemergence, 0 is no effect, 100 is complete control, read-out: Crabgrass, Large plant response rating
# [14] = pre-emergence, Preemergence, 0 no effect, 100 complete control, read-out: Plant response rating, Crabgrass, Large
# [15] = Post-emergence, Rate 16 g a.i./ha, scale 0-100
# [16] = Post-emergence, Rate 62 g a.i./ha, scale 0-100
# [17] = Pre-emergence, Rate 16 g a.i./ha, applied alone, 20 d, scale 0 to 100
# [18] = Pre-emergence, Rate 62 g a.i./ha, applied alone, 20 d, scale 0 to 100
structure (smiles),measurement,setting,value
"Cc1ccc2sc(C)c(-c3c(O)c(C)nn(C)c3=O)c2c1 [Compound 1, 4-(2,5-dimethylbenzo[b]thien-3-yl)-5-hydroxy-2,6-dimethyl-3(2H)-pyridazinone]",pest or weed control at 1000 g/ha,[1]; [11],100%
same,pest or weed control at 1000 g/ha,[1]; [12],90%
same,pest or weed control at 1000 g/ha,[2]; [13],90%
same,pest or weed control at 1000 g/ha,[2]; [14],90%
same,ECHCG Obsd.,[3]; [15],0.0
same,ECHCG Obsd.,[3]; [16],0.0
same,ECHCG Obsd.,[3]; [17],0
same,ECHCG Obsd.,[3]; [18],20
same,KCHSC Obsd.,[4]; [15],60.0
same,KCHSC Obsd.,[4]; [16],100.0
same,KCHSC Obsd.,[4]; [17],0
same,KCHSC Obsd.,[4]; [18],25
same,AMBEL Obsd.,[5]; [15],95.0
same,AMBEL Obsd.,[5]; [16],100.0
same,AMBEL Obsd.,[5]; [17],65
same,AMBEL Obsd.,[5]; [18],90
same,GALAP Obsd.,[6]; Rate 16 g a.i./ha,65.0
same,GALAP Obsd.,[6]; Rate 62 g a.i./ha,100.0
same,ALOMY Obsd.,[7]; Rate 16 g a.i./ha,0.0
same,ALOMY Obsd.,[7]; Rate 62 g a.i./ha,35.0
same,LOLMU Obsd.,[8]; [15],65.0
same,LOLMU Obsd.,[8]; [16],100.0
same,LOLMU Obsd.,[8]; [17],65
same,LOLMU Obsd.,[8]; [18],100
same,AMARE Obsd.,[9]; [15],30.0
same,AMARE Obsd.,[9]; [16],100.0
same,AMARE Obsd.,[9]; [17],20
same,AMARE Obsd.,[9]; [18],90
same,SETVI Obsd.,[10]; [15],0.0
same,SETVI Obsd.,[10]; [16],40.0
same,SETVI Obsd.,[10]; [17],0
same,SETVI Obsd.,[10]; [18],60
"Cc1nn(C)c(=O)c(-c2c(C)oc3c(C)cccc23)c1O [Compound 9, 4-(2,7-dimethyl-3-benzofuranyl)-5-hydroxy-2,6-dimethyl-3(2H)-pyridazinone]",pest or weed control at 125 g/ha,"[1]; post-emergence, Postemergence, visual rating after approx. 10 d, 0 to 100 scale (0 no effect, 100 complete control), read-out: Plant response rating, Morningglory",40%
same,pest or weed control at 500 g/ha,[1]; [11],80%
same,pest or weed control at 125 g/ha,"[1]; pre-emergence, Preemergence, 0 to 100 scale where 0 is no effect and 100 is complete control, read-out: Morningglory plant response rating",0%
same,pest or weed control at 500 g/ha,[1]; [12],0%
same,pest or weed control at 125 g/ha,"[2]; post-emergence, Postemergence, visual rating after approx. 10 d, 0 to 100 scale (0 no effect, 100 complete control), read-out: Plant response rating, Crabgrass, Large",10%
same,pest or weed control at 500 g/ha,[2]; [13],50%
same,pest or weed control at 125 g/ha,"[2]; pre-emergence, Preemergence, 0 to 100 scale where 0 is no effect and 100 is complete control, read-out: Crabgrass, Large plant response rating",20%
same,pest or weed control at 500 g/ha,[2]; [14],90%
